Reference: the supplement of paper PMC10307832

What was measured:
Assay in all cases: relative viability (nuclei count vs DMSO), 5 days (fraction); higher = more cells survive
XMD8-85 + Trametinib = compound: CN1CCN(CC1)C2=CC(=C(C=C2)NC3=NC=C4C(=N3)N(C5=CC=CC=C5C(=O)N4C)C)OC [XMD8-85] + CC(=O)Nc1cccc(-n2c(=O)n(C3CC3)c(=O)c3c(Nc4ccc(I)cc4F)n(C)c(=O)c(C)c32)c1 [Trametinib] (partner 0.02 µM)
Method in brief: (§1)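 Values are medians from duplicate plates. Each reflects relative viability, defined as the nuclei count of treated wells over that of vehicle wells. Lung cancer cell lines in 1536-well plates were pin-tool dosed one day after seeding with one drug alone or with a fixed anchor-drug dose plus five library-drug doses (not always all listed) in √10 steps, then fixed, stained and imaged at 4× after 5 days.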

XMD8-85 + Alpelisib = compound: CN1CCN(CC1)C2=CC(=C(C=C2)NC3=NC=C4C(=N3)N(C5=CC=CC=C5C(=O)N4C)C)OC [XMD8-85] + Cc1nc(NC(=O)N2CCC[C@H]2C(N)=O)sc1-c1ccnc(C(C)(C)C(F)(F)F)c1 [Alpelisib] (partner 2 µM)
Method in brief: as §1

XMD8-85 + Phenformin = compound: CN1CCN(CC1)C2=CC(=C(C=C2)NC3=NC=C4C(=N3)N(C5=CC=CC=C5C(=O)N4C)C)OC [XMD8-85] + N=C(N)NC(=N)NCCc1ccccc1 [Phenformin] (partner 250 µM)
Method in brief: as §1

4EGI-1 + Vorinostat = compound: O=C(O)C(Cc1ccccc1[N+](=O)[O-])=NNc1nc(-c2ccc(Cl)c(Cl)c2)cs1 (mixture of isomers) [4EGI-1] + O=C(CCCCCCC(=O)Nc1ccccc1)NO [Vorinostat] (partner 1 µM)
Method in brief: as §1

| Cell Line | relative viability (XMD8-85 + Trametinib; first compound 0.253 µM) | relative viability (XMD8-85 + Trametinib; first compound 0.8 µM) | relative viability (XMD8-85 + Trametinib; first compound 2.53 µM) | relative viability (XMD8-85 + Trametinib; first compound 8 µM) | relative viability (XMD8-85 + Alpelisib; first compound 0.08 µM) | relative viability (XMD8-85 + Alpelisib; first compound 0.253 µM) | relative viability (XMD8-85 + Alpelisib; first compound 0.8 µM) | relative viability (XMD8-85 + Alpelisib; first compound 2.53 µM) | relative viability (XMD8-85 + Alpelisib; first compound 8 µM) | relative viability (XMD8-85 + Phenformin; first compound 0.08 µM) | relative viability (XMD8-85 + Phenformin; first compound 0.253 µM) | relative viability (XMD8-85 + Phenformin; first compound 0.8 µM) | relative viability (XMD8-85 + Phenformin; first compound 2.53 µM) | relative viability (XMD8-85 + Phenformin; first compound 8 µM) | relative viability (4EGI-1 + Vorinostat; first compound 0.5 µM) | relative viability (4EGI-1 + Vorinostat; first compound 1.581 µM) | relative viability (4EGI-1 + Vorinostat; first compound 5 µM) | relative viability (4EGI-1 + Vorinostat; first compound 15.81 µM) | relative viability (4EGI-1 + Vorinostat; first compound 50 µM) | relative viability (XMD8-85 + Trametinib; first compound 0.08 µM) |
| --- | --- | --- | --- | --- | --- | --- | --- | --- | --- | --- | --- | --- | --- | --- | --- | --- | --- | --- | --- | --- |
| NCI-H520 | 0.728 | 0.689 | 0.604 | 0.496 | 0.891 | 0.918 | 0.866 | 0.854 | 0.515 | 0.574 | 0.6 | 0.557 | 0.543 | 0.446 | 0.877 | 0.73 | 0.887 | 0.773 | 0.153 | – |
| NCI-H647 | 0.486 | 0.485 | 0.465 | 0.28 | 0.837 | 1.18 | 1.22 | 1.35 | 0.734 | 0.258 | 0.522 | 0.528 | 0.465 | 0.307 | 0.837 | 0.53 | 0.689 | 0.477 | 0.0731 | 0.478 |
| 201T | 0.746 | 0.738 | 0.681 | 0.617 | 0.966 | 1.05 | 1 | 1.08 | 0.901 | 0.437 | 0.467 | 0.444 | 0.469 | 0.447 | 1.11 | 1.03 | 1.07 | 0.852 | 0.559 | 0.718 |
| COR-L 105 | 0.465 | 0.433 | 0.506 | 0.437 | – | 1.22 | 0.926 | 0.635 | 0.358 | 0.406 | 0.445 | 0.453 | 0.432 | 0.248 | 0.823 | 0.672 | 0.777 | 0.699 | 0.592 | 0.432 |
| IA-LM | – | – | – | – | 0.613 | – | 0.66 | 0.77 | 0.225 | – | – | – | – | – | 1.04 | 0.91 | 0.871 | 0.698 | 0.261 | – |
| LCLC-97TM1 | 0.174 | 0.218 | 0.153 | 0.116 | 0.294 | 0.238 | 0.293 | 0.263 | 0.36 | 0.412 | 0.412 | 0.451 | 0.471 | 0.45 | 0.78 | – | 0.856 | 0.843 | 0.0947 | 0.178 |
| NCI-H1944 | 0.453 | 0.462 | 0.462 | 0.369 | 0.815 | 0.791 | 0.847 | 0.977 | 0.746 | 0.186 | 0.195 | 0.228 | 0.207 | 0.151 | 0.611 | – | 0.603 | 0.489 | 0.418 | 0.388 |
| EPLC-272H | 0.271 | 0.272 | 0.313 | 0.251 | – | 0.916 | 0.93 | 1.01 | 0.624 | 0.281 | 0.272 | 0.318 | 0.358 | 0.272 | 0.563 | 0.493 | 0.337 | 0.295 | 0.12 | 0.276 |
| NCI-H2342 | 0.807 | 0.859 | 0.922 | 0.991 | – | – | – | – | – | 0.646 | 0.56 | 0.682 | 0.608 | 0.599 | 0.765 | 0.664 | 0.833 | 0.835 | 0.712 | 0.747 |
| NCI-H1648 | 0.416 | 0.397 | 0.337 | 0.354 | – | – | – | – | – | – | – | – | – | – | 1.18 | 0.388 | 0.351 | 0.414 | 0.474 | 0.493 |
| NCI-H1437 | 0.487 | 0.491 | 0.594 | 0.308 | 0.914 | 0.992 | 1.07 | 0.753 | 0.515 | – | 0.299 | 0.338 | 0.329 | 0.268 | 0.975 | 0.805 | 0.776 | 0.418 | 0.206 | 0.547 |
| LU99A | 0.538 | 0.55 | 0.53 | 0.433 | 0.383 | 0.531 | 0.544 | 0.61 | 0.431 | 0.816 | 0.881 | 0.858 | 0.936 | 0.701 | 0.514 | 0.421 | 0.44 | 0.528 | 0.261 | 0.51 |
| NCI-H1993 | 0.436 | 0.537 | 0.494 | 0.381 | 0.707 | – | 0.78 | 0.561 | 0.656 | 0.565 | 0.64 | 0.512 | 0.436 | 0.495 | 1.04 | 0.678 | 0.778 | 0.524 | 0.349 | 0.484 |
| NCI-H838 | 0.48 | 0.516 | 0.617 | 0.334 | 0.983 | 1.03 | 1.09 | 1.01 | 0.446 | 0.528 | 0.553 | 0.604 | 0.617 | 0.283 | 0.724 | 0.732 | 0.738 | 0.605 | 0.263 | 0.529 |
| NCI-H322M | 0.5 | 0.44 | 0.418 | 0.455 | 0.77 | – | 0.819 | 0.784 | 0.782 | 0.74 | – | 0.749 | 0.819 | 0.479 | 0.998 | – | 1.05 | 0.8 | 0.482 | 0.534 |
| NCI-H3122 | 0.223 | 0.271 | 0.303 | 0.283 | 0.814 | 0.71 | 0.954 | 0.93 | 0.766 | 0.388 | 0.383 | 0.389 | 0.373 | 0.32 | 1.04 | 1.11 | 1.03 | 1.11 | 0.773 | 0.251 |
| NCI-H1703 | – | – | – | – | 0.305 | 0.433 | 0.337 | 0.401 | 0.265 | – | – | – | – | – | – | – | – | – | – | – |
| HCC-15 | 0.315 | 0.408 | 0.408 | 0.287 | 0.934 | 0.851 | 0.997 | 0.894 | 0.661 | 0.465 | 0.415 | 0.451 | 0.468 | 0.265 | 0.863 | 0.812 | 0.809 | 0.686 | 0.513 | 0.396 |
